What all share (format): cell-based
Experiment [1] deals with T1, hGCGR (Homo sapiens, UniProt P47871).
T1 construct: expressed in transfected cells
The experiment in a line: Functional cAMP formation (HTRF) in HEK-293 clonal cells expressing hGCGR, 0.1% bovine casein, without or with 1.0% human serum albumin. Put shortly:
(§1)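 Readings of the HTRF 665/620 nm ratio, which falls as cAMP rises, were converted to nM cAMP using a standard curve after 30 min peptide exposure at 37° C.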

Experiment [2] deals with T2, hGIPR (Homo sapiens, UniProt P48546).
T2 construct: expressed in transfected cells
T2 sequence (P48546 22-466): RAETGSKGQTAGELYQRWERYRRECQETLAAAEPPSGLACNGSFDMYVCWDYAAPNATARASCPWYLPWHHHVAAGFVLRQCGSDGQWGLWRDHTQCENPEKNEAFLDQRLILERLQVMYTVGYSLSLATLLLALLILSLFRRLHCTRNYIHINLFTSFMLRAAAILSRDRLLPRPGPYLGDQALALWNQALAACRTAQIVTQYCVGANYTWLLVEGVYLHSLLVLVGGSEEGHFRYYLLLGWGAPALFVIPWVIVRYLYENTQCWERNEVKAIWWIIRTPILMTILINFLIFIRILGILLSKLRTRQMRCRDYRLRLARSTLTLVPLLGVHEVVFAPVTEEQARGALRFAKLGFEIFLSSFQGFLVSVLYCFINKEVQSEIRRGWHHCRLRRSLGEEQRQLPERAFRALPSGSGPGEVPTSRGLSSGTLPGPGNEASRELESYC
Description: Functional cAMP formation (HTRF) in HEK-293 clonal cells expressing hGIPR, 0.1% bovine casein, without or with 1.0% human serum albumin. The conditions noted are these: for EC50: cAMP, 0.1% bovine casein (no human serum albumin), geometric mean. Put shortly: as §1

Experiment [3] concerns the target hGLP-1R (Homo sapiens, UniProt P43220). The experiment in a line: Functional cAMP formation (HTRF) in HEK-293 clonal cells expressing hGLP-1R, 0.1% bovine casein, without or with 1.0% human serum albumin. Further details: expressed in transfected cells. Conditions: for EC50: geometric mean. Put shortly:
as §1

Where [4] appears, read: cAMP, incubated at 37° C., 0.1% bovine casein (no human serum albumin), geometric mean, read-out: hGCGR EC50, nM (SEM, n).
The mark [5] stands for this setting: HEK293, percent of maximal response to GLP-1(7-36)NH2, 37° C., 0.1% bovine casein, arithmetic mean, read-out: hGLP-1R Emax, % ± SEM.
[6] abbreviates: cAMP, incubated at 37° C., 0.1% bovine casein (no human serum albumin), read-out: hGLP-1R EC50, nM (SEM, n).

This is an account of results in patent US20230265151A1, “GIP/GLP1 CO-AGONIST COMPOUNDS” (priority 2020, published 2023).

Structures are written as SMILES. Read-outs that look alike come from different tables or passages of the source.

T1 sequence (P47871 26-477): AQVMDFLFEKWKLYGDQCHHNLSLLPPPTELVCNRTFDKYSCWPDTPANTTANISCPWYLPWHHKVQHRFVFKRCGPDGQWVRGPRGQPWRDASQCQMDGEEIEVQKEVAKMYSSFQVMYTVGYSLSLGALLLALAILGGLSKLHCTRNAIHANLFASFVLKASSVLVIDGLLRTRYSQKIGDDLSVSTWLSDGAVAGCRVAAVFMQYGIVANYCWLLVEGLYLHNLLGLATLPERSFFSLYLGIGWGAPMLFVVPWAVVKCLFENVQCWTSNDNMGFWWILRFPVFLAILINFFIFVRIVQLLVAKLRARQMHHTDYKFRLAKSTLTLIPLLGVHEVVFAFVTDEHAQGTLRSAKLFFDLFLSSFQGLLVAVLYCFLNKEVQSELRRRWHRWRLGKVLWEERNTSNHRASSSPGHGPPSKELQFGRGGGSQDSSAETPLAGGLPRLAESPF
Chain of hGLP-1R (P43220 24-463): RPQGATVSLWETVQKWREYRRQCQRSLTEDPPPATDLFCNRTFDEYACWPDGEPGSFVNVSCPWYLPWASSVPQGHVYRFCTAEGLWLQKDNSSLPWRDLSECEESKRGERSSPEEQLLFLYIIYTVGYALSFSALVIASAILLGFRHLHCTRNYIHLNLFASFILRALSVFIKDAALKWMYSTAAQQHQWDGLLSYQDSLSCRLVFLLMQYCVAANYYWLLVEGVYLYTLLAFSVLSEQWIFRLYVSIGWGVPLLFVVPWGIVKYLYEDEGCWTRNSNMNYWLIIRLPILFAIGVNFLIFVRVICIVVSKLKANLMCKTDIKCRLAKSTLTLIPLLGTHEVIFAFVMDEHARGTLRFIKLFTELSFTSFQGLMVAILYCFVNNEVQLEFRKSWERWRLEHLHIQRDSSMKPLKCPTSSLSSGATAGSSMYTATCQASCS

`CC[C@H](C)[C@H](NC(=O)[C@H](CC(C)C)NC(=O)[C@](C)(Cc1ccc(O)cc1)NC(=O)[C@@H](CCC(=O)O)NC(=O)[C@@H](NC(=O)[C@H](Cc1ccccc1)NC(=O)[C@H](CCCCNC(=O)COCCOCCNC(=O)COCCOCCNC(=O)CCCCCCCCCCCCC(=O)O)NC(=O)C(C)(C)NC(=O)[C@H](CCC(N)=O)NC(=O)[C@H](C)NC(=O)[C@H](CCCCNC(=O)COCCOCCNC(=O)COCCOCCNC(=O)CCCCCCCCCCCCC(=O)O)NC(=O)[C@H](CCCN)NC(=O)[C@H](CC(=O)O)NC(=O)[C@H](CC(C)C)NC(=O)[C@](C)(CC(C)C)NC(=O)[C@@H](NC(=O)C(C)(C)NC(=O)[C@H](Cc1ccc(O)cc1)NC(=O)[C@H](CC(=O)O)NC(=O)[C@H](CO)NC(=O)[C@@H](NC(=O)[C@](C)(Cc1ccccc1F)NC(=O)[C@@H](NC(=O)CNC(=O)[C@H](CCC(=O)O)NC(=O)C(C)(C)NC(=O)[C@@H](N)Cc1ccc(O)cc1)[C@@H](C)O)[C@@H](C)O)[C@@H](C)CC)[C@@H](C)CC)C(=O)N[C@@H](CCC(=O)O)C(=O)NCC(=O)NCC(=O)N1CCC[C@H]1C(=O)N[C@@H](CO)C(=O)N[C@@H](CO)C(=O)NCC(=O)N[C@@H](C)C(=O)N1CCC[C@H]1C(=O)N1CCC[C@H]1C(=O)N1CCC[C@H]1C(=O)N[C@@H](CO)C(N)=O` [Example 385]: the concentration giving a half-maximal response (EC50) was greater than 9950 nM in experiment [1] (cAMP, 37° C., 0.1% bovine casein (no human serum albumin), geometric mean, read-out: hGCGR EC50, nM (SEM, n)); greater than 9950 nM in experiment [1] (cAMP, 37° C., 0.1% bovine casein and 1.0% human serum albumin, geometric mean (SEM, n), read-out: hGCGR EC50, nM (SEM, n)); 0.0154 nM in experiment [2] (37° C., read-out: hGIPR EC50, nM (SEM, n)); 0.189 nM in experiment [3] (cAMP, 37° C., 0.1% bovine casein (no human serum albumin), read-out: hGLP-1R EC50, nM (SEM, n)). The Emax in experiment [2] (HEK293, cAMP, 37° C., 0.1% bovine casein and 1.0% human serum albumin, percent of maximal response to GIP(1-42)NH2, read-out: hGIPR Emax, % ± SEM) is 83.5%; in experiment [2] (HEK293, cAMP, 37° C., 0.1% bovine casein, percent of maximal response to GIP(1-42)NH2, arithmetic mean, read-out: hGIPR Emax, % ± SEM), 95.2%; in experiment [3] (HEK293, cAMP, 37° C., 0.1% bovine casein and 1.0% human serum albumin, percent of maximal response to GLP-1(7-36)NH2, read-out: hGLP-1R Emax, % ± SEM) it was 112%; in experiment [3] (HEK293, cAMP, 37° C., 0.1% bovine casein, percent of maximal response to GLP-1(7-36)NH2, arithmetic mean, read-out: hGLP-1R Emax, % ± SEM) it was 100%.
For `CC[C@H](C)[C@H](NC(=O)[C@H](CCCN)NC(=O)[C@H](CC(=O)O)NC(=O)[C@H](CC(C)C)NC(=O)[C@](C)(CC(C)C)NC(=O)[C@@H](NC(=O)[C@H](CO)NC(=O)[C@H](Cc1ccncc1)NC(=O)[C@H](CC(=O)O)NC(=O)[C@H](CO)NC(=O)[C@@H](NC(=O)[C@](C)(Cc1ccccc1F)NC(=O)[C@@H](NC(=O)CNC(=O)[C@H](CCC(=O)O)NC(=O)C(C)(C)NC(=O)[C@@H](N)Cc1ccc(O)cc1)[C@@H](C)O)[C@@H](C)O)[C@@H](C)CC)C(=O)N[C@@H](C)C(=O)N[C@@H](CCC(N)=O)C(=O)NC(C)(C)C(=O)N[C@@H](CCC(=O)O)C(=O)N[C@@H](Cc1ccccc1)C(=O)N[C@H](C(=O)N[C@@H](CCCCNC(=O)COCCOCCNC(=O)COCCOCCNC(=O)CC[C@H](NC(=O)CCCc1ccc(C(C)(C)C)cc1)C(=O)O)C(=O)N[C@@](C)(Cc1ccc(O)cc1)C(=O)N[C@@H](CC(C)C)C(=O)N[C@H](C(=O)N[C@@H](CCCCNC(=O)COCCOCCNC(=O)COCCOCCNC(=O)CC[C@H](NC(=O)CCCc1ccc(C(C)(C)C)cc1)C(=O)O)C(=O)NCC(=O)NCC(=O)N1CCC[C@H]1C(=O)N[C@@H](CO)C(=O)N[C@@H](CO)C(=O)NCC(=O)N[C@@H](C)C(=O)N1CCC[C@H]1C(=O)N1CCC[C@H]1C(=O)N1CCC[C@H]1C(=O)N[C@@H](CO)C(N)=O)[C@@H](C)CC)[C@@H](C)CC` [Example 203], the EC50 in experiment [1] (0.1% bovine casein and 1.0% human serum albumin, 37° C., geometric mean, read-out: hGCGR EC50, nM (SEM, n)) is greater than 9950 nM; in experiment [1] (setting [4]), greater than 9950 nM; in experiment [3] (0.1% bovine casein and 1.0% human serum albumin, 37° C., read-out: hGLP-1R EC50, nM (SEM, n)), 3.38 nM; in experiment [3] (setting [6]), 0.535 nM. Further, the maximal response (Emax) in experiment [2] (HEK293, 0.1% bovine casein and 1.0% human serum albumin, 37° C., percent of maximal response to GIP(1-42)NH2, read-out: hGIPR Emax, % ± SEM) worked out at 87.2%; in experiment [3] (HEK293, 0.1% bovine casein and 1.0% human serum albumin, 37° C., percent of maximal response to GLP-1(7-36)NH2, read-out: hGLP-1R Emax, % ± SEM), 105%; in experiment [3] (setting [5]) it was 119%.
For `CC[C@H](C)[C@H](NC(=O)[C@H](CCCN)NC(=O)[C@H](CC(=O)O)NC(=O)[C@H](CC(C)C)NC(=O)[C@](C)(CC(C)C)NC(=O)[C@@H](NC(=O)C(C)(C)NC(=O)[C@H](Cc1ccc(O)cc1)NC(=O)[C@H](CC(=O)O)NC(=O)[C@H](CO)NC(=O)[C@@H](NC(=O)[C@](C)(Cc1ccccc1F)NC(=O)[C@@H](NC(=O)CNC(=O)[C@H](CCC(=O)O)NC(=O)C(C)(C)NC(=O)[C@@H](N)Cc1ccc(O)cc1)[C@@H](C)O)[C@@H](C)O)[C@@H](C)CC)C(=O)N[C@@H](C)C(=O)N[C@@H](CCC(N)=O)C(=O)NC(C)(C)C(=O)N[C@@H](CCC(=O)O)C(=O)N[C@@H](Cc1ccccc1)C(=O)N[C@H](C(=O)N[C@@H](CCCCNC(=O)COCCOCCNC(=O)COCCOCCNC(=O)COCCOCCNC(=O)CC[C@H](NC(=O)CCCCCCCCCOc1ccc(C(=O)O)cc1)C(=O)O)C(=O)N[C@@](C)(Cc1ccc(O)cc1)C(=O)N[C@@H](CC(C)C)C(=O)N[C@H](C(=O)N[C@@H](CCCCNC(=O)COCCOCCNC(=O)COCCOCCNC(=O)COCCOCCNC(=O)CC[C@H](NC(=O)CCCCCCCCCOc1ccc(C(=O)O)cc1)C(=O)O)C(=O)NCC(=O)NCC(=O)N1CCC[C@H]1C(=O)N[C@@H](CO)C(=O)N[C@@H](CO)C(=O)NCC(=O)N[C@@H](C)C(=O)N1CCC[C@H]1C(=O)N1CCC[C@H]1C(=O)N1CCC[C@H]1C(=O)N[C@@H](CO)C(N)=O)[C@@H](C)CC)[C@@H](C)CC` [Example 346], the EC50 in experiment [1] (hGCGR EC50, nM (SEM, n), cAMP, 37° C., 0.1% bovine casein (no human serum albumin), geometric mean) was greater than 9950 nM; in experiment [1] (hGCGR EC50, nM (SEM, n), cAMP, 37° C., 0.1% bovine casein and 1.0% human serum albumin, geometric mean (SEM, n)) it was greater than 9950 nM; in experiment [2] (hGIPR EC50, nM (SEM, n), 37° C.), 0.0194 nM; in experiment [3] (hGLP-1R EC50, nM (SEM, n), cAMP, 37° C., 0.1% bovine casein (no human serum albumin)), 0.329 nM. Further, the Emax in experiment [2] (HEK293, read-out: hGIPR Emax, % ± SEM, cAMP, 37° C., 0.1% bovine casein and 1.0% human serum albumin, percent of maximal response to GIP(1-42)NH2) amounted to 83.9%; in experiment [2] (HEK293, read-out: hGIPR Emax, % ± SEM, cAMP, 37° C., 0.1% bovine casein, percent of maximal response to GIP(1-42)NH2, arithmetic mean), 96.6%; in experiment [3] (HEK293, read-out: hGLP-1R Emax, % ± SEM, cAMP, 37° C., 0.1% bovine casein and 1.0% human serum albumin, percent of maximal response to GLP-1(7-36)NH2), 97.7%.
Regarding `CC[C@H](C)[C@H](NC(=O)[C@H](CC(C)C)NC(=O)[C@](C)(Cc1ccc(O)cc1)NC(=O)[C@@H](CCC(=O)O)NC(=O)[C@@H](NC(=O)[C@H](Cc1ccccc1)NC(=O)[C@H](CCC(=O)O)NC(=O)C(C)(C)NC(=O)[C@H](CCC(N)=O)NC(=O)[C@H](C)NC(=O)[C@H](CCCCNC(=O)[C@@H](N)CCCCNC(=O)[C@@H](N)CCCCNC(=O)CC[C@H](NC(=O)CCCCCCCCCCCCC(=O)O)C(=O)O)NC(=O)[C@H](CCCN)NC(=O)[C@H](CC(=O)O)NC(=O)[C@H](CC(C)C)NC(=O)[C@](C)(CC(C)C)NC(=O)[C@@H](NC(=O)C(C)(C)NC(=O)[C@@H](NC(=O)[C@H](CC(=O)O)NC(=O)[C@H](CO)NC(=O)[C@@H](NC(=O)[C@](C)(Cc1ccccc1F)NC(=O)[C@@H](NC(=O)CNC(=O)[C@H](CCC(=O)O)NC(=O)C(C)(C)NC(=O)[C@@H](N)Cc1ccc(O)cc1)[C@@H](C)O)[C@@H](C)O)C(C)C)[C@@H](C)CC)[C@@H](C)CC)C(=O)N[C@@H](CCC(=O)O)C(=O)NCC(=O)NCC(=O)N[C@@H](CCCCNC(=O)[C@@H](N)CCCCNC(=O)[C@@H](N)CCCCNC(=O)CC[C@H](NC(=O)CCCCCCCCCCCCC(=O)O)C(=O)O)C(=O)N[C@@H](CO)C(=O)N[C@@H](CO)C(=O)NCC(=O)N[C@@H](C)C(=O)N1CCC[C@H]1C(=O)N1CCC[C@H]1C(=O)N1CCC[C@H]1C(=O)N[C@@H](CO)C(N)=O` [Example 165], the EC50 in experiment [1] (setting [4]) was greater than 9950 nM; in experiment [3] (setting [6]), 0.291 nM. Besides, the Emax was 96.1% in experiment [2] (HEK293, percent of maximal response to GIP(1-42)NH2, 37° C., 0.1% bovine casein, arithmetic mean, read-out: hGIPR Emax, % ± SEM) and 94.3% in experiment [3] (setting [5]).
